# Earlier results, collected in patent US20210060038A1, “COMPOSITIONS FOR ELIMINATING BACTERIAL PROMOTORS OF COLORECTAL CANCER BY INTRALUMINAL APPLICATION” (priority 2018, published 2021).
# Like-named read-outs stand apart in the source and are kept apart here.
# Columns and labels:
# human macrophages = details: extracellular concentrations 0.125 to 1 μg/mL
# [1] = test system: resistant bacterial strains; details: overall, controlled clinical trials, oral or intravenous
# [2] = test system: polymorphonuclear leukocytes
# [3] = test system: strains of organisms from the susceptible genera
# [4] = test system: anaerobic genus Fusobacterium
# [5] = test system: anaerobic Bacteroides fragilis group of bacteria
# [6] = test system: anaerobic genera Peptostreptococcus (including Peptoniphilus, Finegoldia and Anaerococcus)
# [7] = test system: Staphylococcus, Streptococcus, Enterococcus, Neisseria, Escherichia, Proteus (indole-negative), Serratia, Salmonella, Shigella, Pseudomonas, Haemophilus, and …
# [8] = test system: indole-positive Proteus spp., Klebsiella and Enterobacter spp.
# Pseudomonas aeruginosa = details: maximum
# [9] = test system: human polymorphonuclear leukocytes; details: rapid passive diffusion
# [10] = not given; remark: listed apart in the source
# [11] = not given; remark: listed apart in the source
# [12] = sealed sachets at room temperature
# [13] = test system: mouse macrophage cell line
# [14] = in vivo
# IPEC-J2 cells = IPEC-J2 cells exposed at 580 μg/mL, within 15 minutes
smiles,measurement,setting,value
C[C@@H](O)[C@H]1C(=O)N2C(C(=O)O)=C(S[C@@H]3CN[C@H](C(=O)N(C)C)C3)[C@H](C)[C@H]12 [meropenem],cellular to extracellular concentration ratio,human macrophages,3-12
"C[C@@H]1O[C@@H]1P(=O)(O)O [fosfomycin, [(2R,3S)-3-methyloxiran-2-yl]phosphonic acid]",appearance of resistant bacterial strains,[1],3.0%
same,concentration in polymorphonuclear leukocytes relative to extracellular fluid,[2],up to twice those of the extracellular fluid
same,eosinophilia,in vivo,0.2%
same,transient rashes (allergy),in vivo,0.3 % of cases
same,transiently raised liver enzymes,systemically administered,0.3 % of cases
same,"synergistic effect, share of tested strains","[3]; early studies, various antibiotic combinations",70-100%
same,synergy rates,[3]; subsequent more extensive studies,36-74%
same,activity against Fusobacterium,[4],active
same,activity against Bacteroides fragilis group,[5],inactive
same,activity against Peptostreptococcus,[6],active
same,activity against aerobic genera,[7],active
same,"activity against indole-positive Proteus spp., Klebsiella and Enterobacter spp.",[8],less active
same,appearance of resistant bacterial strains,Pseudomonas aeruginosa,15%
Cc1ncc([N+](=O)[O-])n1CCO [metronidazole],time for intracellular levels to approach equilibrium with extracellular levels,[9],≤ 15 min
same,activity against Fusobacterium,[4],active
same,activity against Bacteroides fragilis group,[5],active
C[C@@H]1O[C@@H]1P(=O)(O)O.NC(CO)(CO)CO [Fosfomycin trometamol],pH of 5% solution,[10],3.5-5.5
same,solubility in water,[11],highly soluble in water
same,stability of granulate,[12],long-term stability
C[C@@H](O)[C@H]1C(=O)N2C(C(=O)O)=C(S[C@@H]3CN[C@H](C(=O)Nc4cccc(C(=O)O)c4)C3)[C@H](C)[C@H]12 [ertapenem],extracellular concentration giving bactericidal intracellular concentrations,[13],≥ 15 µg/mL
C[C@@H]1O[C@@H]1P(=O)(O)O [Fosfomycin disodium],pH of 5% solution,[10],9.0-10.5
same,solubility in water,[11],highly soluble in water
same,bioavailability,[14],high bioavailability
C[C@@H]1O[C@@H]1P(=O)(O)O [Fosfomycin calcium monohydrate],intracellular concentration,IPEC-J2 cells,~30 µg/mL
same,pH of 0.4% solution,[10]; 0.4% solution,8.1-9.6
same,solubility in water,[11]; calcium monohydrate,sparingly soluble in water
